Tests used:
[1] = system: MCF10A human mammary epithelial cells; test: Cell death (Sytox green+) by time-lapse microscopy, MCF10A; format: cell-based; details: for effect on nanoparticle-induced cell death / effect on α-MSH-PEG-C′ dot-induced cell death: AA-st plus 15 μM α-MSH-PEG-C′ dots, 40 hours; for effect on nanoparticle-induced cell death: 50 μM BHA, 200 μM ascorbic acid, 100 μM Trolox, 10 mM NAC, 5 mM GSH; for effect on α-MSH-PEG-C′ dot-induced cell death: inhibitor 1 μM
Description: (§1) MEF and HT1080 cells were cultured in Dulbecco's modified Eagle's medium (DMEM) (MSKCC Media Preparation Facility) supplemented with 10% fetal bovine serum (FBS, Sigma, St. Louis, Mo.) with penicillin/streptomycin (Corning, Corning, N.Y.). MCF10A cells were cultured in DMEM/F12 (Gibco, Grand Island, N.Y.) supplemented with 5% horse serum (Atlanta Biologicals, Flowery Branch, Ga.), 20 ng/ml EGF (Peprotech, Rocky Hill, N.J.), 10 μg/ml insulin (Sigma), 0.5 μg/ml hydrocortisone (Sigma), and 100 ng/ml cholera toxin (Sigma) with penicillin/streptomycin. M21, BxPC3, H1650, and 786-O cells were cultured in RPMI-1640 (Gibco) supplemented with 10% FBS with penicillin/streptomycin. SKOV3 cells were cultured in McCoy's 5a modified medium (Gibco) supplemented with 10% FBS with penicillin/streptomycin. Amino acid-free medium was prepared by dialyzing heat-inactivated FBS (for MEF, HT1080, M21, BxPC3, H1650, and SKOV3 cells) or horse serum (for MCF10A cells) for 4 h, followed by overnight incubation at 4° C. in phosphate-buffered saline (PBS) in MWCO 3500 dialysis tubing (21-152-9; Fisherbrand, Pittsburgh, Pa.) and addition to base media prepared without amino acids. PRetro-Lamp1-GFP was introduced into M21 cells by retroviral transduction, and stable cell lines were selected with puromycin (2 μg ml^−1).
(§2) NIS Elements software (Nikon, Melville, N.Y.) was used.

[2] = system: lipid ROS; test: C11-BODIPY imaging of lipid ROS before cell death; format: cell-based; details: erastin 5 μM plus liproxstatin-1, 6 hours after control cells underwent cell death
From the text: as §2

[3] = system: HT-1080 tumors; test: HT-1080 flank xenograft, multi-dose i.v. particle treatment; format: in vivo, mice
Description: All animal experiments were performed in accordance with protocols approved by the Institutional Animal Care and Use Committee of Memorial Sloan-Kettering Cancer Center and followed NIH guidelines for animal welfare. Human melanoma (M21) xenografts were generated on the shaved flanks of immunodeficient male SCID/Beige (C.B-17/IcrHsd-Prkdc^scidLyst^bg-J) mice (6-8 weeks old; Harlan Laboratories, South Easton, Mass.). Human sarcoma HT1080 and 786-O flank xenografts[…]) were additionally generated using the same model for intravenous particle injection. Average initial tumor volumes of 45-75 mm^3 were used for all experiments.
Five million M21 cells, cultured in serum-supplemented media, were subcutaneously implanted into the right flank of mice using a 23-gauge trocar needle to establish melanoma xenografts 2 days after particle exposure (n=3) or without exposure (n=3). […] Tumor sizes were measured using calipers over the treatment interval. […] Two perpendicular diameters (d1≤d2) of the tumor used to calculate the tumor volume (V; 4/3·π·d1^2·d2/8) were measured with calipers daily following the injection of cells.
Volume-time profiles were compared between the two treatment groups using robust standard errors calculated using by a generalized estimating equations approach. […]

[4] = system: mouse embryo fibroblasts (MEF); test: Cell death (Sytox green+) by time-lapse microscopy, MEF; format: cell-based; details: wt MEFs, 100 ng/ml TNFα, 1 μg/ml CHX and 20 μM zVAD, plus 30 μM Nec-1
Description: as §1, §2

[5] = system: amino acid-starved cells; details: amino acid-starvation conditions, FAC 400 μM
[6] = system: ferritin heavy chain (FTH1); test: Ferritin heavy chain western blot; format: cell-based; details: amino acid-starved cells, 24 hours; 15 μM particles, FAC 400 μM, DFO 100 μM
[7] = system: glutathione; test: Glutathione quantification; format: cell-based; details: MCF10A, full or amino acid-free media, 24 hours; 15 μM particles or 400 μM BSO
Description: For glutathione measurements, HT-1080 cells were plated on 6 cm cell culture dishes, incubated with 15 μM α-MSH-tagged nanoparticles in amino acid-free DMEM+10% dialyzed FBS and harvested approximately 2 hours before the expected time of death. As controls, cells were treated with a mix of 3 parts full or amino acid-free DMEM and 1 part H2O, or 100 μM BSO in full media. Cells were washed 3× with cold PBS and harvested through cell scraping in 50 μL cold lysis buffer. Protein concentrations were measured using the BCA assay and sample volumes were adjusted so that each had the same final protein concentration. Total glutathione was measured using the Glutathione Assay Kit (Cayman Chemicals, 703002) and reduced glutathione was measured using the QuantiChrom™ Glutathione Assay Kit (BioAssay Systems, DIGT-250) according to manufacturer's instructions.

O=C1O[C@H]([C@@H](O)CO)C(O)=C1O [ascorbic acid, Ascorbic acid]
effect on nanoparticle-induced cell death [1]: inhibited

CC(=O)N[C@@H](CS)C(=O)O [N-acetylcysteine]
effect on nanoparticle-induced cell death [1]: inhibited

Clc1cccc(CN=C2Nc3ccccc3NC23CCNCC3)c1 [liproxstatin-1, Liproxstatin-1]
effect on C11-BODIPY staining induced by erastin [2]: inhibits C11-BODIPY staining induced by erastin treatment | average daily tumor growth ([3]; HT1080, particle-exposed tumors (three 60 μM i.v. doses) treated with daily i.p. liproxstatin-1 125 mg/kg, 10 days, 95% CI: 10.1-18.9): 14.6 mm^3 | difference in average daily tumor growth, particles plus liproxstatin-1 vs particles alone ([3]; HT1080, CI: 13.1 to 17.6, p<0.001): 15.3 mm^3 | effect on α-MSH-PEG-C′ dot-induced cell death [1]: rescued cell viability

CN1C(=O)C(Cc2c[nH]c3ccccc23)NC1=S (stereo not shown) [necrostatin-1, Necrostatin-1]
cell death on necroptosis induction [4]: do not undergo cell death

N[C@@H](CCC(=O)N[C@@H](CS)C(=O)NCC(=O)O)C(=O)O [glutathione, Glutathione]
effect on nanoparticle-induced cell death [1]: inhibited

Ferric ammonium citrate
percent cell death (Sytox green+) [5]: sufficient to mimic α-MSH-PEG-C′ dot-induced death | ferritin heavy chain (FTH1) expression [6]: increased

C/C=C/[C@H]1O[C@@](O)([C@@H](C)[C@H](O)[C@H](C)[C@H]2OC(=O)/C(OC)=C/C(C)=C/[C@@H](C)[C@@H](O)[C@@H](CC)[C@@H](O)[C@H](C)C/C(C)=C/C=C/[C@@H]2OC)C[C@@H](O[C@H]2C[C@@H](O)[C@H](OC(N)=O)[C@@H](C)O2)[C@@H]1C [concanamycin A, Concanamycin A]
cell death morphology ([1]; amino acid-free media, 100 nM ConA): undergo cell death with morphologic features of apoptosis

C[C@@H]1C[C@@H]([C@H](O)CC2CC(=O)NC(=O)C2)C(=O)[C@@H](C)C1 [cycloheximide, Cycloheximide]
temporal pattern of apoptotic cell death ([1]; 50 μg/ml cycloheximide): asynchronous pattern of cell death

CCOC(=O)c1ccc(NC2CCCCC2)c(N)c1 [ferrostatin-1, Ferrostatin-1]
effect on α-MSH-PEG-C′ dot-induced cell death [1]: rescued cell viability

COc1ccc(O)c(C(C)(C)C)c1 [butylated hydroxyanisole, Butylated hydroxyanisole]
effect on nanoparticle-induced cell death [1]: inhibited

Cc1c(C)c2c(c(C)c1O)CCC(C)(C(=O)O)O2 (stereo not shown) [trolox, Trolox]
effect on nanoparticle-induced cell death [1]: inhibited

CCCCS(=N)(=O)CCC(N)C(=O)O (stereo not shown) [BSO, Buthionine sulphoximine]
reduced glutathione (GSH) levels [7]: reduce glutathione levels

— patent US11246946B2, “Methods of treatment using ultrasmall nanoparticles to induce cell death of nutrient-deprived cancer cells via ferroptosis” (priority 2015, dated 2022)
